Data set [1] relates to pulmonary eosinophil infiltration. Put plainly: Inhibition of late-phase eosinophilia 48 h after inhalative ovalbumin challenge in actively sensitized Brown Norway rats. In kind it is in vivo. The following applies: 2 h prior to allergen challenge, BAL 48 h after challenge. The procedure:
The inhibition exerted by the substances according to the invention on pulmonary eosinophil infiltration is examined in male Brown Norway rats (200-250 g) which have been actively sensitized against ovalbumin (OVA). The sensitization is effected by subcutaneously injecting a suspension of 10 μg of OVA, together with 20 mg of aluminium hydroxide as adjuvant, in 0.5 ml of physiological sodium chloride solution per animal on days 1, 14 and 21. In addition to this, each of the animals is injected at the same time with 0.25 ml of Bordetalla pertussis vaccine dilution i.p. On the 28th day of the experiment, the animals are placed individually in open 11 Plexiglass boxes which are connected to a head/nose exposure appliance. The animals are exposed to an aerosol consisting of a 1.0% suspension of ovalbumin (Allergen Challenge). The ovalbumin aerosol is generated using a compressed air (0.2 MPa)-driven nebulizer (Bird micro nebulizer, Palm Springs Calif., USA). The exposure time is 1 hour, with normal controls likewise being nebulized for 1 hour with an aerosol consisting of a 0.9% solution of sodium chloride.
48 hours after the allergen challenge, there is a massive immigration of eosinophilic granulocytes into the lungs of the animals. At this time, the animals are anaesthetized with an overdose of ethylurethane (1.5 g/kg of body weight, given i.p.) and a bronchoalveolar lavage (BAL) is carried out using 3×4 ml of Hank's balance solution. The total cell count, and the number of eosinophilic granulocytes, in the pooled BAL liquid are then determined using an automatic haemocytometer (Bayer Diagnostics Technicon H1E). For each animal, the eosinophils (EOS) in the BAL are calculated in 10^6/animal: EOS/μl×BAL recovery (ml)=EOS/animal. Two control groups (nebulization with physiological sodium chloride solution and nebulization with OVA solution) are included in each test.
The percentage inhibition of the eosinophilia in the substance-treated experimental group is calculated using the following formula: {((OVAC−SC)−(OVAD−SC))/(OVAC−SC)}×100%=% inhibition
(SC=control group treated with vehicle and challenged with 0.9% sodium chloride solution; OVAC=control group treated with vehicle and challenged with 1% of ovalbumin suspension; OVAD=experimental group treated with substance and challenged with 1% of ovalbumin suspension)
The test substances are administered 2 hours prior to the allergen challenge intraperitoneally or orally as a suspension in 10% polyethylene glycol 300 and 0.5% 5-hydroxyethyl cellulose or per inhalation as a mixture with lactose. The control groups are treated with the vehicle in accordance with the manner in which the test substance is administered.

The target in a further data set is PDE 4. The data set can be described thus: Inhibition of phosphodiesterase 4 (SPA assay, enzyme preparation from human PMNLs). The data set is classed as biochemical. As to conditions: cytosolic PDE 4 fraction from human PMNLs; 0.5 μM [3H]-cAMP; 100 μM cGMP. The procedure:
The PDE 4 activity is determined using enzyme preparations from human […] (PMNLs). Human blood (buffy coats) was anticoagulated with citrate. The platelet-rich plasma in the supernatant is separated from the erythrocytes and leucocytes by centrifuging at 700 […]g for 20 minutes at room temperature (RT). The PMNLs for the PDE 4 determination are isolated by means of a subsequent dextran sedimentation followed by a gradient centrifugation using Ficoll-Paque. After the cells have been washed twice, the erythrocytes which are still present are lysed within 6 minutes by adding 10 ml of hypotonic buffer (155 mM NH4Cl, 10 mM NaHCO3, 0.1 mM EDTA, pH=7.4) at 4° C. The PMNLs, which are still intact, are washed a further two times with PBS and lysed by ultrasonication. The supernatant obtained after centrifuging at 48 000×g at 4° C. for one hour contains the cytosolic PDE 4 fraction and is used for the PDE 4 measurements.
The phosphodiesterase activity is measured using a modified Amersham Pharmacia Biotech method, i.e. an SPA (scintillation proximity assay) assay. The reaction mixtures contain buffer (50 mM tris-HCl (pH 7.4), 5 mM MgCl2, 100 μM cGMP), varying concentrations of the inhibitors, and the corresponding enzyme preparation. The reaction is started by adding the substrate, i.e. 0.5 μM [3H]-cAMP. The final volume is 100 μl. Test substances are prepared as stock solutions in DMSO. The concentration of DMSO in the reaction mixture is 1% v/v. This DMSO concentration has no effect on PDE activity. After the reaction has been started by adding the substrate, the samples are incubated at 37° C. for 30 minutes. The reaction is stopped by adding a defined quantity of SPA beads and the samples are measured in a beta counter after one hour. The nonspecific enzyme activity (i.e. the blank) is determined in the presence of 100 μM rolipram and subtracted from the test values. The incubation mixtures for the PDE 4 assay contain 100 μM cGMP in order to inhibit any contamination of PDE 3 which may be present.

Data set [2] deals with pulmonary neutrophil infiltration. The data set can be described thus: Inhibition of lipopolysaccharide (LPS)-induced pulmonary neutrophilia in Lewis rats. The data set is classed as in vivo. The following applies: 2 h prior to LPS provocation, BAL 6 h after provocation. The procedure: The ability of the substances according to the invention to inhibit pulmonary neutrophil infiltration is examined in male Lewis rats (200-350 g). On the day of the experiment, the animals are placed individually in open 1 l Plexiglass boxes which are connected to a head/nose exposure appliance. The animals are exposed to an aerosol consisting of a suspension of lipopolysaccharide (100 μg of LPS/ml of 0.1% hydroxylamine solution) in PBS (LPS provocation). The LPS/hydroxylamine aerosol is generated using a compressed air (0.2 MPa)-driven nebulizer (Bird micro nebulizer, Palm Springs Calif., USA). The exposure time is 40 minutes, with normal controls likewise being nebulized for 40 minutes with an aerosol consisting of a 0.1% solution of hydroxylamine in PBS.
6 hours after the LPS provocation, there is a maximal and massive immigration of neutrophilic granulocytes into the lungs of the animals. At this time, the animals are anaesthetized with an overdose of ethylurethane (1.5 g/kg of body weight, given i.p.) and a bronchoalveolar lavage (BAL) is carried out using 3×4 ml of Hank's balance solution. The total cell count, and the number of neutrophilic granulocytes, in the pooled BAL liquid are then determined using an automatic haemocytometer (Bayer Diagnostics Technicon H1E). In the case of each animal, the neutrophils (NEUTRO) in the BAL are calculated in 10^6/animal: NEUTRO/μl×BAL recovery (ml)=NEUTRO/animal.
Two control groups (nebulization with a 0.1% hydroxylamine solution in PBS and nebulization with 100 μg of LPS/ml of 0.1% hydroxylamine solution in PBS) are included in each test. The percentage inhibition of the neutrophilia in the substance-treated experimental group is calculated using the following formula: {((LPSC−SC)−(LPSD−SC))/(LPSC−SC)}×100%=% inhibition
SC=control group treated with vehicle and challenged with 0.1% hydroxylamine solution; LPSC=control group treated with vehicle and challenged with LPS (100 μg/ml of 0.1% hydroxylamine solution); LPSD=experimental group treated with substance and challenged with LPS (100 μg/ml of 0.1% hydroxylamine solution)
The test substances are administered 2 hours prior to the LPS provocation, as a suspension in 10% polyethylene glycol 300 and 0.5% 5-hydroxyethyl cellulose orally or per inhalation as a mixture with lactose. The control groups are treated with the vehicle in accordance with the mode of administration used for the test substance.

Regarding `O=C(Nc1c(Cl)cncc1Cl)C(=O)c1cn(Cc2cccc([N+](=O)[O-])c2)c2c(O)cccc12` [Comparative Compound A], the Inhibition of eosinophilia result in data set [1] (0.1 mg/kg i.t.) was “no effect”; in data set [1] (10 mg/kg i.p.), 33%; in data set [1] (30 mg/kg p.o.), 31%. In addition, the half-inhibitory concentration (IC50) (as a rule, the concentration that gives 50% inhibition) at PDE 4 was 2 nM. The Inhibition of neutrophilia result in data set [2] (0.1 mg/kg i.t.) is “no effect”; in data set [2] (1 mg/kg p.o.) it was 39%.

With `O=C(Nc1c(Cl)cncc1Cl)C(=O)c1cn(Cc2c(F)cccc2F)c2c(O)cccc12` [Comparative Compound B, N-(3,5-dichloropyridin-4-yl)[1-(2,6-difluorobenzyl)-7-hydroxyindol-3-yl] glyoxylic acid amide], the Inhibition of eosinophilia entry is given as “no effect” in data set [1] (0.01 mg/kg i.t.), 35% in data set [1] (0.1 mg/kg i.t.), 38% in data set [1] (10 mg/kg i.p.) and 30% in data set [1] (30 mg/kg p.o.). The compound further returned an IC50 at PDE 4 of 2 nM. Further, the results for the Inhibition of neutrophilia entry in data set [2] (0.01 mg/kg i.t.), in data set [2] (0.1 mg/kg i.t.) and in data set [2] (1 mg/kg p.o.) were “no effect”, 38% and 31%, respectively.

For `O=C(Nc1c(Cl)cncc1Cl)C(=O)c1cn(Cc2ccccc2Cl)c2c(O)cccc12` [Comparative Compound C, (N-3,5-dichloropyridin-4-yl)[1-(2-chlorobenzyl)-7-hydroxyindol-3-yl] glyoxylic acid amide], the Inhibition of eosinophilia entry in data set [1] (0.01 mg/kg i.t.) is reported as “no effect”; in data set [1] (0.1 mg/kg i.t.), 62%; in data set [1] (10 mg/kg i.p.), 30%; in data set [1] (30 mg/kg p.o.), 32%. Besides, on PDE 4, the IC50 came to 0.6 nM. For the same compound, the results for the Inhibition of neutrophilia result in data set [2] (0.01 mg/kg i.t.), in data set [2] (0.1 mg/kg i.t.) and in data set [2] (1 mg/kg p.o.) were “no effect”, 31% and 34%, respectively.

As to `O=C(Nc1c(Cl)cncc1Cl)C(=O)c1cn(Cc2ccc(Cl)cc2[N+](=O)[O-])c2c(O)cccc12` [Compound 1, N-(3,5-dichloropyrdin-4-yl)-[1-(4-chloro-2-nitrobenzyl)-7-hydroxyindol-3-yl]glyoxylic acid amide], the Inhibition of eosinophilia in data set [1] (0.001 mg/kg i.t.) is listed as 55%; in data set [1] (10 mg/kg i.p.), 57%; in data set [1] (30 mg/kg p.o.), 51%. For the same compound, it took 0.9 nM to reach half-maximal inhibition against PDE 4 (IC50). Moreover, the Inhibition of neutrophilia in data set [2] (0.001 mg/kg i.t.) is 51%; in data set [2] (1 mg/kg p.o.) it was 49%.

`O=C(Nc1c(Cl)cncc1Cl)C(=O)c1cn(Cc2c(F)cccc2[N+](=O)[O-])c2c(O)cccc12` [Compound 2, N-(3,5-dichloropyridine-4-yl)[1-(6-fluoro-2-nitrobenzyl)-7-hydroxyindole-3-yl)glyoxylic acid amide]: the melting point (as a rule, the temperature of the solid-liquid transition) lay within 308 to 310 °C. The compound also yielded an IC50 against PDE 4 of 0.6 nM.

Compound `Cc1ccc(Cn2cc(C(=O)C(=O)Nc3c(Cl)cncc3Cl)c3cccc(O)c32)cc1[N+](=O)[O-]` [Compound 3, N-(3,5-dichloropyridine-4-yl)-[7-hydroxy-1-(4-methyl-3-nitrobenzyl)-indol-3-yl]-glyoxylic acid amide] yielded an IC50 at PDE 4 of 8 nM.

`Cc1c(Cn2cc(C(=O)C(=O)Nc3c(Cl)cncc3Cl)c3cccc(O)c32)cccc1[N+](=O)[O-]` [Compound 4, N-(3,5-dichloropyridine-4-yl)-[7-hydroxy-1-(2-methyl-3-nitrobenzyl)-indol-3-yl]-glyoxylic acid amide]: the melting point is 229 to 232 °C (dec.). The IC50 on PDE 4 came out at 2 nM.

In the case of `Cc1ccc([N+](=O)[O-])c(Cn2cc(C(=O)C(=O)Nc3c(Cl)cncc3Cl)c3cccc(O)c32)c1` [Compound 5, N-(3,5-dichloropyridine-4-yl)-[7-hydroxy-1-(5-methyl-2-nitrobenzyl)-indol-3-yl]-glyoxylic acid amide], the melting point was 297 to 300 °C (dec.). On PDE 4, this compound had an IC50 of 38 nM.

Compound `O=C(Nc1c(Cl)c[n+]([O-])cc1Cl)C(=O)c1cn(Cc2ccc(Cl)cc2[N+](=O)[O-])c2c(O)cccc12` [Compound 6, N-(3,5-dichloro-1-oxo-pyridine-4-yl)-[1-(4-chloro-2-nitrobenzyl)-7-hydroxyindol-3-yl]-glyoxylic acid amide] came in with an IC50 against PDE 4 of 4 nM. That is a single-digit nanomolar value.

The record behind these values is patent US20060293362A1, “Nitro-substituted hydroxyindoles, their use as inhibitors of phosphodiesterase 4, and processes for preparing them” (priority 2005, published 2006).
